ChEMBL document CHEMBL1158953, “The Structure of Clathrodin, a Novel Alkaloid Isolated from the Caribbean Sea Sponge Agelas clathrodes” (1991)
Values after ≈ are worked out from the molar mass of the structure shown. Active and inactive are the calls of the source. The rule behind the calls is not given here.

Key:
Rana temporaria = species: Rana temporaria; experiment: Inhibition of cholinergic receptor in frog skeletal muscle at 0.1 uM to 1000 uM
CHO-K1 = experiment: Cytotoxicity against CHOK1 cells; format: functional; conditions: Cricetulus griseus, read-out: ED50 (the source's name)

- Activity (Rana temporaria): Active
SMILES: Nc1ncc(/C=C/CNC(=O)c2ccc[nH]2)[nH]1 [CLATHRODIN]
- EC50 (CHO-K1): 1.33 mg/L (≈ 5.75 µM)
